# Results: US5247084A, “Derivatives of p-guanidinobenzoic acid” (priority 1985, dated 1993)
# Biological target: T1, elastase from human neutrophil (Homo sapiens, UniProt P08246)
# T1 construct: using elastase from human neutrophil; from tissue; host or cells: human neutrophil
# T1 sequence (P08246 30-247 limits assumed): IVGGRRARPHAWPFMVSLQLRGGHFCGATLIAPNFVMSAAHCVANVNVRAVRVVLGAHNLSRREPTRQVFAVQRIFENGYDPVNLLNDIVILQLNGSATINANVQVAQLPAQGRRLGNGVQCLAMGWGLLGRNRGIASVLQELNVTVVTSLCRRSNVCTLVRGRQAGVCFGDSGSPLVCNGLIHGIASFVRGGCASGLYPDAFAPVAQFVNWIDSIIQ
# Assay: Inhibitory effect on elastase (spectrophotometric method, substrate Suc-Ala-Pro-Ala-pNA)
# Type: biochemical
# Conditions: Y represents an oxygen atom; for IC50: pH 8.0, 37° C., 30 minutes, read-out: Inhibitory Effect on Elastase, IC50
# Experimental: The test was carried out by the slight modification of the method of Bieth et al [see Biochem. Med., 75, 350 (1974)] using elastase from human neutrophil.
# The reaction mixture consisted of 1 mM Suc-Ala-Pro-Ala-pNA (dissolving in N-methylpyrrolidone to the concentration of 100 mM, and then adding 1/100 amount of the solution to the reaction mixture.), 0.1 M buffer solution of tris-hydrochloric acid (pH 8.0), 0.2 M sodium chloride aqueous solution, the sample solution of various concentrations and enzyme solution in a final volume of 1.0 ml was incubated at 37° C. for 30 minutes.
# The reaction was stopped by the addition of 100 μl of 50% acetic acid into the reaction mixture, and then p-nitro anilide released was measured on absorbance of 405 nm.
# Inhibition percentage of the test compounds was caliculated by the following equation: [formula]
Structure (SMILES),IC50,inhibition at 100 µM,"inhibition at 50 µg/mL (at 50 μg/ml (footnote 2), read-out: Inhibitory Effect on Elastase, Inhibition %)"
"N=C(N)Nc1ccc(C(=O)Oc2cc(Cl)cc(Cl)c2)cc1 [Example 1, p-guanidinobenzoic acid 3,5-dichlorophenyl ester methanesulfonate]",0.4 µM,97%,–
Cc1ccccc1OC(=O)c1ccc(NC(=N)N)cc1 [Example 2],–,20.2%,–
Cc1cccc(OC(=O)c2ccc(NC(=N)N)cc2)c1 [Example 3],–,45.6%,–
"Cc1ccc(OC(=O)c2ccc(NC(=N)N)cc2)cc1 [Example 4-methyl, reference compound]",–,28.4%,–
Cc1cccc(OC(=O)c2ccc(NC(=N)N)cc2)c1C [Example 4],–,5.9%,–
Cc1cc(C)cc(OC(=O)c2ccc(NC(=N)N)cc2)c1 [Example 5],–,46.2%,–
CCc1cccc(OC(=O)c2ccc(NC(=N)N)cc2)c1 [Example 6],–,39.6%,–
COc1ccccc1OC(=O)c1ccc(NC(=N)N)cc1 [Example 7],–,23.1%,–
COc1cccc(OC(=O)c2ccc(NC(=N)N)cc2)c1 [Example 8],100 µM,50.9%,–
COc1ccc(OC(=O)c2ccc(NC(=N)N)cc2)cc1 [Example 9],–,44.4%,–
COc1cc(OC)cc(OC(=O)c2ccc(NC(=N)N)cc2)c1 [Example 10],40 µM,–,–
CCS(=O)(=O)Oc1cc(COC)cc(OC(=O)c2ccc(NC(=N)N)cc2)c1 [Example 11],60 µM,66%,–
COCc1cc(O)cc(OC(=O)c2ccc(NC(=N)N)cc2)c1 [Example 12],> 200 µM,14%,–
COCc1cc(OC(=O)c2ccc(NC(=N)N)cc2)cc(OC(=O)c2ccc(NC(=N)N)cc2)c1 [Example 13],9.1 µM,89%,–
COC(=O)c1cccc(OC(=O)c2ccc(NC(=N)N)cc2)c1Cl [Example 14],4 µM,90.7%,–
COC(=O)c1ccc(OC(=O)c2ccc(NC(=N)N)cc2)c(Cl)c1 [Example 15],98 µM,55.6%,–
COC(=O)c1ccc(OC(=O)c2ccc(NC(=N)N)cc2)cc1Cl [Example 16],–,42%,–
COC(=O)c1ccc(Cl)cc1OC(=O)c1ccc(NC(=N)N)cc1 [Example 17],5.8 µM,92.2%,–
COC(=O)c1cc(Cl)cc(OC(=O)c2ccc(NC(=N)N)cc2)c1 [Example 18],1.8 µM,–,–
CC(C)OC(=O)c1cc(OC(=O)c2ccc(NC(=N)N)cc2)cc(C(=O)OC(C)C)c1 [Example 19],–,5.2%,–
CC(C)OC(=O)c1ccc(Cl)cc1OC(=O)c1ccc(NC(=N)N)cc1 [Example 20],14 µM,–,–
CC(C)OC(=O)c1cccc(OC(=O)c2ccc(NC(=N)N)cc2)c1Cl [Example 21],2 µM,–,–
CCC(C)OC(=O)c1cccc(OC(=O)c2ccc(NC(=N)N)cc2)c1Cl (centres unmarked) [Example 22],2.6 µM,–,–
COC(=O)Cc1cccc(OC(=O)c2ccc(NC(=N)N)cc2)c1 [Example 23],–,15.6%,–
COC(=O)Cc1cccc(OC(=O)c2ccc(NC(=N)N)cc2)c1Cl [Example 24],50 µM,–,–
COC(=O)Cc1ccc(OC(=O)c2ccc(NC(=N)N)cc2)c(Cl)c1 [Example 25],–,40%,–
COC(=O)Cc1ccc(OC(=O)c2ccc(NC(=N)N)cc2)cc1Cl [Example 26],–,13.3%,–

Structure (SMILES),IC50,inhibition at 100 µM,"inhibition at 50 µg/mL (at 50 μg/ml (footnote 2), read-out: Inhibitory Effect on Elastase, Inhibition %)"
COC(=O)C=Cc1ccc(OC(=O)c2ccc(NC(=N)N)cc2)cc1 [Example 27],–,31%,–
N=C(N)Nc1ccc(C(=O)Oc2ccccc2F)cc1 [Example 28],40 µM,76.3%,–
N=C(N)Nc1ccc(C(=O)Oc2cccc(F)c2)cc1 [Example 29],21 µM,81.1%,–
N=C(N)Nc1ccc(C(=O)Oc2ccc(F)cc2)cc1 [Example 30],–,10.7%,–
N=C(N)Nc1ccc(C(=O)Oc2c(F)cccc2F)cc1 [Example 31],3.7 µM,–,–
N=C(N)Nc1ccc(C(=O)Oc2cccc(F)c2F)cc1 [Example 32],3.7 µM,–,–
N=C(N)Nc1ccc(C(=O)Oc2c(F)c(F)c(F)c(F)c2F)cc1 [Example 33],5.8 µM,92.1%,–
N=C(N)Nc1ccc(C(=O)Oc2ccccc2Cl)cc1 [Example 34],27 µM,76.8%,–
N=C(N)Nc1ccc(C(=O)Oc2cccc(Cl)c2)cc1 [Example 35],8 µM,87.6%,–
N=C(N)Nc1ccc(C(=O)Oc2ccc(Cl)cc2)cc1 [Example 36],–,–,14.9%
N=C(N)Nc1ccc(C(=O)Oc2c(Cl)cccc2Cl)cc1 [Example 38],2 µM,89.9%,–
COc1cc(Cl)cc(OC(=O)c2ccc(NC(=N)N)cc2)c1 [Example 39],2.4 µM,91.1%,–
COc1cc(OC(=O)c2ccc(NC(=N)N)cc2)ccc1Cl [Example 40],–,39%,–
COc1ccc(Cl)c(OC(=O)c2ccc(NC(=N)N)cc2)c1 [Example 41],13 µM,–,–
N=C(N)Nc1ccc(C(=O)Oc2ccccc2Br)cc1 [Example 42],16 µM,82.1%,–
N=C(N)Nc1ccc(C(=O)Oc2cccc(Br)c2)cc1 [Example 43],6 µM,91.7%,–
N=C(N)Nc1ccc(C(=O)Oc2ccc(I)cc2)cc1 [Example 44],–,11.2%,–
N=C(N)Nc1ccc(C(=O)Oc2ccccc2C(F)(F)F)cc1 [Example 45],23 µM,72.4%,–
N=C(N)Nc1ccc(C(=O)Oc2cccc(C(F)(F)F)c2)cc1 [Example 46],13 µM,71.4%,–
N=C(N)Nc1ccc(C(=O)Oc2cc(C(F)(F)F)cc(C(F)(F)F)c2)cc1 [Example 47],3.2 µM,–,–
CC(=O)c1cccc(OC(=O)c2ccc(NC(=N)N)cc2)c1 [Example 48],–,4.1%,–
COc1ccc(C(C)=O)c(OC(=O)c2ccc(NC(=N)N)cc2)c1 [Example 49],40 µM,–,–
CCCOc1ccc(C(C)=O)c(OC(=O)c2ccc(NC(=N)N)cc2)c1 [Example 50],54 µM,–,–
CC(=O)c1ccc(Cl)cc1OC(=O)c1ccc(NC(=N)N)cc1 [Example 51],1.8 µM,–,–
CCC(=O)c1ccc(Cl)cc1OC(=O)c1ccc(NC(=N)N)cc1 [Example 52],1.6 µM,–,–
CC(C)C(=O)c1ccc(Cl)cc1OC(=O)c1ccc(NC(=N)N)cc1 [Example 53],6.5 µM,–,–
N=C(N)Nc1ccc(C(=O)Oc2cccc(C(=O)c3ccccc3)c2)cc1 [Example 54],92 µM,–,–

Structure (SMILES),IC50,inhibition at 100 µM,"inhibition at 50 µg/mL (at 50 μg/ml (footnote 2), read-out: Inhibitory Effect on Elastase, Inhibition %)"
N=C(N)Nc1ccc(C(=O)Oc2ccc(C(=O)c3ccccc3)cc2)cc1 [Example 55],–,33.3%,–
N=C(N)Nc1ccc(C(=O)Oc2ccc(C(=O)c3ccccc3)cc2Cl)cc1 [Example 56],48 µM,57.1%,–
N=C(N)Nc1ccc(C(=O)Oc2ccc(C(=O)c3ccccc3)c(Cl)c2Cl)cc1 [Example 57],–,50.5%,–
N=C(N)Nc1ccc(C(=O)Oc2cc(Cl)ccc2C(=O)CC2CCCC2)cc1 [Example 58],1.9 µM,–,–
CC(=O)Oc1cccc(OC(=O)c2ccc(NC(=N)N)cc2)c1 [Example 59],–,25.7%,–
CC(=O)Oc1ccc(OC(=O)c2ccc(NC(=N)N)cc2)cc1 [Example 60],–,27.8%,–
CC(=O)Oc1cc(Cl)cc(OC(=O)c2ccc(NC(=N)N)cc2)c1 [Example 61],0.48 µM,–,–
CCC(=O)Oc1cc(Cl)cc(OC(=O)c2ccc(NC(=N)N)cc2)c1 [Example 62],0.38 µM,–,–
N=C(N)Nc1ccc(C(=O)Oc2cccc(OC(=O)c3ccccc3)c2)cc1 [Example 63],11 µM,78.3%,–
N=C(N)Nc1ccc(C(=O)Oc2cccc(OC(=O)c3ccc(NC(=N)N)cc3)c2)cc1 [Example 64],15 µM,–,–
N=C(N)Nc1ccc(C(=O)Oc2cc(OC(=O)c3ccc(NC(=N)N)cc3)cc(OC(=O)c3ccc(NC(=N)N)cc3)c2)cc1 [Example 65],–,38%,–
CC(=O)c1cc(OC(=O)c2ccc(NC(=N)N)cc2)cc(OC(=O)c2ccc(NC(=N)N)cc2)c1 [Example 66],72 µM,–,–
COC(=O)c1cc(OC(=O)c2ccc(NC(=N)N)cc2)cc(OC(=O)c2ccc(NC(=N)N)cc2)c1 [Example 67],70 µM,–,–
N=C(N)Nc1ccc(C(=O)Oc2cc(Cl)cc(OC(=O)c3ccc(NC(=N)N)cc3)c2)cc1 [Example 68],0.6 µM,–,–
COc1cc(OC(=O)c2ccc(NC(=N)N)cc2)cc(OC(=O)c2ccc(NC(=N)N)cc2)c1 [Example 69],1.6 µM,–,–
Cc1cc(OC(=O)c2ccc(NC(=N)N)cc2)cc(OC(=O)c2ccc(NC(=N)N)cc2)c1 [Example 70],6.4 µM,–,–
CC(=O)OCc1cc(Cl)cc(OC(=O)c2ccc(NC(=N)N)cc2)c1 [Example 71],3 µM,–,–
CS(=O)(=O)c1ccc(OC(=O)c2ccc(NC(=N)N)cc2)cc1 [Example 72],> 100 µM,–,–
COc1cc(OC(=O)c2ccc(NC(=N)N)cc2)cc(OS(C)(=O)=O)c1 [Example 73],4.7 µM,–,–
CS(=O)(=O)Oc1cc(Cl)cc(OC(=O)c2ccc(NC(=N)N)cc2)c1 [Example 74],1 µM,–,–
CC(C)S(=O)(=O)Oc1cc(Cl)cc(OC(=O)c2ccc(NC(=N)N)cc2)c1 [Example 76],1.1 µM,–,–
N=C(N)Nc1ccc(C(=O)Oc2cc(Cl)cc(OS(=O)(=O)c3ccccc3)c2)cc1 [Example 77],0.8 µM,–,–
CCS(=O)(=O)Oc1cc(C)cc(OC(=O)c2ccc(NC(=N)N)cc2)c1 [Example 78],27 µM,–,–
N=C(N)Nc1ccc(C(=O)Oc2cc(Cl)cc(C(N)=O)c2)cc1 [Example 79],5.2 µM,–,–
CN(C)C(=O)c1cccc(OC(=O)c2ccc(NC(=N)N)cc2)c1 [Example 80],–,30%,–
CNC(=O)c1cccc(OC(=O)c2ccc(NC(=N)N)cc2)c1Cl [Example 81],6 µM,–,–
